Test results as given in patent US6544989B2, “Benzazoles: benzoxazole, benzthiazole and benzimidazole derivatives” (Syngenta Limited, priority 1998, dated 2003).

Tests used:
[1] = tested on: Uncinula necator; experiment: Fungicidal test, Uncinula necator (UNCINE) on vines, PRCO; format: in vivo; details: METHOD 2 (unbanded)
[2] = tested on: Phytophthora infestans lycopersici; format: in vivo; details: METHOD 2 (unbanded)
[3] = tested on: Venturia inaequalis; experiment: Fungicidal test, Venturia inaequalis (VENTIN) on apples, PRCO; format: in vivo; details: METHOD 2 (unbanded)
[4] = tested on: Erysiphe graminis f.sp. tritici; experiment: Fungicidal test, Erysiphe graminis f.sp. tritici (ERYSGT) on wheat, PRCO; format: in vivo; details: 1 d Prot/Foir; METHOD 2 (unbanded)
[5] = tested on: Septoria nodorum; experiment: Fungicidal test, Septoria nodorum (LEPTNO) on wheat, PRCO; format: in vivo; details: METHOD 2 (unbanded)
[6] = tested on: Puccinia recondita; experiment: Fungicidal test, Puccinia recondita (PUCCRT) on wheat, PRCO; format: in vivo; details: METHOD 2 (unbanded)
[7] = tested on: Pyricularia oryzae; format: in vivo; details: METHOD 2 (unbanded)
[8] = tested on: Meloidogyne incognita; experiment: Nematode test, J2 infective juveniles of Meloidogyne incognita, mortality; details: 12.5 ppm; J2 infective juveniles suspended in solution; mortality after three days
[9] = tested on: Musca domestica; details: 500 ppm by weight; knockdown assessed 15 minutes after treatment
Protocol: The activities of individual compounds of formula (I) were determined using a variety of pests. With the exception of nematodes, the pests were treated with a liquid composition containing 500 parts per million (ppm) by weight of a compound unless otherwise stated. Each composition was made by dissolving the compound in an acetone and ethanol (50:50 by volume) mixture and diluting the solution with water containing 0.05% by volume of a wetting agent, SYNPERONIC NP8, until the liquid composition contained the required concentration of the compound.
The test procedure adopted with regard to each pest, except nematodes, was essentially the same and composed supporting a number of the pests on a medium which was usually a substrate, a host plant or a foodstuff on which the pests feed, and treating either or both the medium and the pests with a composition. Pest mortality was assessed usually between three and five days after treatment Knockdown of housefly (Musca domestica) was assessed 15 minutes after treatment

SMILES	UNCINE 1 d Prot/Foir PRCO [1]	PHYTIN 1 d Prot/Foir PRCO [2]	VENTIN 1 d Prot/Foir PRCO [3]	ERYSGT 1 d Prot/Foir PRCO [4]	LEPTNO 1 d Prot/Foir PRCO [5]	PUCCRT 1 d Prot/Foir PRCO [6]	PYRIOR 1 d Prot/Foir PRCO [7]	MELGIN = Meloidogyne incognita, grading of mortality (score) [8]	MUSCDO AC = Musca domestica (knockdown), score [9]
CCc1nsc(NC(=O)Cc2ccc3oc(C)nc3c2)c1Cl [2(A8)]	74	74	8	54	9	100	75	0 (0 indicates less than 40% mortality)	–
Cc1nsc(NC(=O)Cc2ccc3oc(CC(C)(C)C)nc3c2)c1Br [15(A4)]	100	100	54	91	19	99	98	0 (0 indicates less than 40% mortality)	9 (9 indicates 80-100% mortality)
CCCc1nc2cc(CC(=O)Nc3snc(C)c3Cl)ccc2s1 [4(A13)]	100	–	55	100	20	100	100	0 (0 indicates less than 40% mortality)	9 (9 indicates 80-100% mortality)
CCN(C)c1nc2cc(CC(=O)Nc3snc(C)c3Cl)ccc2o1 [180(A3)]	42	–	0	29	14	69	42	0 (0 indicates less than 40% mortality)	0 (0 indicates less than 40% mortality)
Cc1nsc(NC(=O)Cc2ccc3oc(C(F)(F)C(F)(F)C(F)(F)F)nc3c2)c1Cl [80(A3)]	100	45	−8	99	−2	100	91	0 (0 indicates less than 40% mortality)	0 (0 indicates less than 40% mortality)
Cc1nsc(NC(=O)Cc2ccc3nc(C(C)(C)C)[nH]c3c2)c1Cl [9(A43)]	7	0	38	7	−4	25	26	0 (0 indicates less than 40% mortality)	0 (0 indicates less than 40% mortality)
Cc1nsc(NC(=O)Cc2ccc3oc(-c4c(F)c(F)c(F)c(F)c4F)nc3c2)c1Cl [287(A3)]	20	3	8	34	−2	94	19	0 (0 indicates less than 40% mortality)	–
Cc1nc2cc(CC(=O)Nc3snc(C)c3C#N)ccc2o1 [2(A5)]	3	19	19	18	−2	28	31	5 (5 indicates 40-79% mortality)	–
Cc1nsc(N(CC(F)(F)F)C(=O)Cc2ccc3oc(CC(C)(C)C)nc3c2)c1Cl [15(H3)]	63	–	0	16	2	29	46	0 (0 indicates less than 40% mortality)	–
Cc1nsc(NC(=O)Cc2ccc3oc(C(F)(F)C(F)F)nc3c2)c1Cl [79(A3)]	90	–	88	100	14	100	98	0 (0 indicates less than 40% mortality)	–
Cc1nsc(NC(=O)Cc2ccc3oc(C(C)C#N)nc3c2)c1Cl (racemic) [115(A3)]	2	–	15	−3	8	45	5	0 (0 indicates less than 40% mortality)	–
Cc1nsc(NC(=O)Cc2ccc3oc(CC(C)(C)C)nc3c2)c1C#N [15(A5)]	83	45	3	15	−2	84	81	0 (0 indicates less than 40% mortality)	–
CCC(Cl)c1nc2cc(CC(=O)Nc3snc(C)c3Cl)ccc2o1 (racemic) [95(A3)]	100	–	98	68	8	100	96	0 (0 indicates less than 40% mortality)	–
CCc1nsc(NC(=O)Cc2ccc3oc(CC(C)(C)C)nc3c2)c1Cl [15(A8)]	100	99	24	80	−2	–	81	0 (0 indicates less than 40% mortality)	–
